The source of these data is US12285408B2, “Methods and compositions for the treatment of snake bite” (priority 2021, dated 2025).

In data set [1] the test system is normal plasma clotting. In words: Normal plasma clotting in the absence of venom. It counts as biochemical, bovine. To be noted: 150 μM, no venom. The procedure:
FIG. 14. The serine protease-inhibitor nafamostat inhibits normal plasma clotting. Comparison of normal clotting (i.e. in the absence of venom and inhibitors via recalcification) and clotting in the presence of the generic serine protease-inhibitor nafamostat. […] The anticoagulant effect of this drug is expressed as a percentage of the plasma-only activity.
(§1) We used a previously developed plasma clotting assay^35 to measure venom-induced coagulation. Briefly, 100 ng of each venom was incubated at 37° C. for 30 min in the presence or absence of inhibitors (150 μM to 150 nM final concentrations). The final reaction consisted of 10 μl venom±inhibitors in PBS, 20 μl 20 mM CaCl2), and 20 μl citrated bovine plasma (VWR). The samples were pipetted in triplicate into 384-well plates, and absorbance monitored at 595 nm for 2 h at 25° C. on an Omega FLUOstar instrument. We calculated the maximum clotting velocity of each of the curves as per clot waveform analysis^67, by calculating the maximum of the first derivative. The means of at least three independent experimental runs for each condition were plotted at each inhibitor concentration with SEMs.

For data set [2] the following is noted: in vivo; cited from earlier work.
Data set [3] has as its system SVSP activity of viper venoms. In words: Chromogenic SVSP (serine protease) assay. Type of data set: biochemical. From the text:
FIG. 13. Nafamostat inhibits the in vitro serine protease activities of several geographically distinct viper venoms. (A) The serine protease (SVSP) activity of five viper venoms expressed as the rate (ΔAbs/time/μg venom) of substrate consumption determined by kinetic chromogenic assay. The data represents triplicate independent repeats with SEMs, where each technical repeat represents the mean of n≥2 technical replicates. EOC, E. ocellatus; ECAR, E. carinatus; BAS, Bothrops asper, BAR, Bitis arietans; DRUS, Daboia russelii. (B) Neutralization of SVSP venom activity by the serine protease-inhibitor nafamostat. The data is expressed as rates (ΔAbs/time/μg venom) and represents triplicate independent repeats with SEMs, where each technical repeat represents the mean of n≥2 technical replicates. […] Note the different y-axis scales.
SVSP activity was measured using a chromogenic substrate (S-2288, Cambridge Bioscience). […] The samples were pipetted in triplicate into 384-well plates (Greiner) and absorbance at 405 nm was monitored kinetically for ˜30 min on an Omega FLUOstar instrument (BMG Labtech). Given the linearity of the resulting slopes, negative control readings (PBS) were subtracted from each reading and the rate of substrate consumption calculated by measuring the slope between 0 and 5 mins. […]

Data set [4] deals with Echis ocellatus venom. In words: Murine preincubation (co-incubation) model of venom lethality, intravenous, with TAT ELISA. The note with it: 45 μg venom (2.5×LD50) preincubated 30 min at 37° C. with 60 μg of each drug, i.v., 6 h monitoring, n=5. Type of data set: in vivo, CD-1 mice. The protocol:
The intravenous median lethal dose (venom LD50) for E. ocellatus (Nigeria) of 17.85 μg per mouse was previously determined. Mice were challenged with 45 μg of E. ocellatus venom (2.5×the intravenous LD50 dose) in a refined version of the World Health Organization-recommended antivenom efficacy experiments. Groups of five male 18-22 g CD-1 mice (Charles River, UK) received experimental doses that consisted of either (a) venom only (2.5×LD50 dose), (b) venom and drug (60 μg) or (c) drug only. All experimental doses were prepared to a volume of 200 μl in PBS and incubated at 37° C. for 30 mins prior to their intravenous injection via the tail vein. Animals were monitored for 6 hours and euthanized upon observation of humane endpoints (seizure, pulmonary distress, paralysis, hemorrhage). Deaths, time of death, and survivors were recorded; where “deaths/time of death” represents the implementation of euthanasia based on the defined humane endpoints.
The same murine preincubation model was used to assess the efficacy of distinct toxin family inhibiting drugs in comparison with a drug combination. […] All experimental doses were prepared to a volume of 200 μl in PBS and incubated at 37° C. for 30 min prior to their intravenous injection via the tail vein. Animals were monitored for 6 h, and euthanized via rising concentrations of CO2 upon observation of previously defined humane end points that are predicators of lethality (e.g., seizure, pulmonary distress, paralysis, hemorrhage). Deaths, time of death, and survivors were recorded; where death/time of death represents the implementation of euthanasia based on defined humane end points.
Strong drug hits, those defined as inhibiting >80% of the venom activity in the previously described in vitro metalloproteinase assay (FIG. 1), were next progressed into murine preclinical efficacy studies, to assess their ability to prevent venom-induced lethality in vivo. We used an established in vivo model of envenoming to test the efficacy of the seven snake venom metalloproteinase toxin inhibitors identified. This model consisted of the preincubation of the test drug with venom, followed by intravenous injection of the mixture into groups of five male CD-1 mice (18-20 g) via the tail vein followed by 6 hour monitoring, and is based on principles laid out in the gold standard method of preclinical efficacy recommended by the World Health Organization.
We used an established in vivo model of envenoming^41,42 to test the efficacy of small molecule toxin inhibitors. […]
Background: ELISA stands for enzyme-linked immunosorbent assay.

Data set [5] deals with procoagulant activities of viper venoms (E. ocellatus, E. carinatus, B. asper, D. russelii). In words: Plasma clotting assay, neutralization of procoagulant venom activity. To be noted: range across all venoms, 100 ng venom, bovine plasma; read-out: IC50, inhibition of procoagulant activity. Type of data set: biochemical.
From the text: FIG. 11. SVMP-inhibitors neutralize the in vitro procoagulant activities of several geographically distinct viper venoms. […] The data presented represents the maximum clotting velocity, calculated as the maximum of the first derivative of each clotting curve, from triplicate independent repeat experiments with SEMs, where each technical repeat represents the mean of n≥2 technical replicates. EOC, E. ocellatus; ECAR, E. carinatus; BAS, Bothrops asper, BAR, Bitis arietans; DRUS, Daboia russelii. (B) Neutralization of procoagulant venom activity by four SVMP-inhibitors across four drug concentrations (150 μM to 150 nM). The data is expressed as the maximum clotting velocity at each dose. The negative (PBS) and positive (venom-only) controls are presented as intervals (bottom dashed and top dashed lines, respectively), with the latter representing the mean maximum clotting velocity in these samples±SEM. The data represent triplicate independent repeats with SEMs, where each technical repeat represents the mean of n≥2 technical replicates. Note the different y-axis scales.
Since SVMPs are key toxins associated with causing coagulopathy, we next investigated whether the same peptidomimetic and metal chelating inhibitors could also neutralize the procoagulant bioactivities of viper venoms. To do so, we used a validated kinetic absorbance-based assay monitoring plasma clotting^35 in the presence or absence of venoms and inhibitors (FIG. 11).
as §1

Data set [6] relates to SVMP activity of E. ocellatus, E. carinatus, B. asper and B. arietans venoms. In words: In vitro kinetic fluorogenic SVMP assay (Study 2). It counts as biochemical. From the text:
FIG. 10. […] (A) SVMP activities of the five viper venoms quantified by fluorogenic assay. The data presented represent mean measurements and SEMs of area under the curves of fluorescent arbitrary units taken from three independent experimental runs. EOC, E. ocellatus; ECAR, E. carinatus; BAS, Bothrops asper, BAR, Bitis arietans; DRUS, Daboia russelii. (B) The effectiveness of metal chelators and peptidomimetic hydroxamate inhibitors at inhibiting the SVMP activity of the various viper venoms. Drug concentrations from 150 μM to 150 nM (highest to lowest dose tested) are presented. The data is expressed as percentage of the venom-only sample (100%, top dashed line). The negative control is presented as an interval (bottom dashed lines) and represents the values recorded in the PBS-only samples (expressed as percentage of venom activity), where the highest and the lowest values in each set of independent experiments are depicted. […] All data represent triplicate independent repeats with SEMs, where each technical repeat represents the mean of n≥2 technical replicates.
We used an in vitro kinetic fluorogenic assay^28 to assess the SVMP bioactivity of each venom and its inhibition by varying concentrations of the four SVMP-inhibitors.
The SVMP assay measuring metalloproteinase activity and the plasma assay measuring coagulation in the presence or absence of venoms and inhibitors were performed as previously described^28. The SVMP assay kinetically measured cleavage of a quenched fluorogenic substrate (ES010, R&D Biosystems) by venom in the presence or absence of inhibitors.
Briefly, 10 μl of the substrate (supplied as a 6.2 mM stock) was used per 5 ml reaction buffer (150 mM NaCl, 50 mM Tris-CI pH 7.5). Reactions consisted of 10 μl of venom±inhibitors in PBS and 90 μl of substrate. Venoms were used at 1 μg/reaction and final inhibitor concentrations ranged from 150 μM to 150 nM. Samples were preincubated for 30 min at 37° C. and pipetted in triplicate into 384-well plates (Greiner). Thereafter, data was collected on an Omega FLUOstar (BMG Labtech) instrument at an excitation wavelength of 320 nm and emission wavelength of 405 nm at 25° C. for 1 h. The areas under the curve (AUCs) in the 0-40 min interval were calculated for each sample using MARS data analysis software v3.31 (BMG Labtech); this time point was chosen as the time where all fluorescence curves had reached a plateau (maximum fluorescence). For comparing venom-only samples, the means of at least three independent experimental runs for each condition, expressed as AUCs (n≥3), were plotted at each inhibitor concentration with standard error of the mean (SEM). To determine inhibitor efficacy, the AUCs for each of the samples that consisted of venom+inhibitors were transformed and expressed as percentages of the venom-only sample (where the venom was 100%). The negative control (PBS only) was also expressed relative to the venom, and the variation in background was presented as an interval delineated by the lowest and highest values in the PBS-only samples across concentrations and inhibitors for a specific venom. […] However, only the latter two concentrations were sufficiently depleted of DMSO for viable use in the assay.

By half-life is commonly meant the time in which the quantity being followed falls by half. For `N=C(N)c1ccc2cc(OC(=O)c3ccc(N=C(N)N)cc3)ccc2c1` [nafamostat], the “effect on normal plasma clotting” value in data set [1] was “dramatically inhibits plasma coagulation”. In addition, the half-life in data set [2] is reported as approximately 8 min. The “inhibition of SVSP activity” value in data set [3] (highest doses 150 and 15 μM, irrespective of venom) is on record as “completely inhibiting SVSP activity”. In addition, in data set [3] (range across venoms, 1 μg venom/reaction, read-out: IC50s, inhibition of SVSP activity), the IC50 lay in the range of 120 to 1070 nM. For the same compound, in data set [4], the “survival / protection against venom-induced lethality” value was “no evident efficacy”.
As to `OCC(S)CS` (centres unmarked) [dimercaprol, 2,3-dimercapto-1-propanol], the IC50 lay in the range of 150 to 3700 nM in data set [5] and 20 to 400 nM in data set [6] (range across venoms, 1 μg venom/reaction, read-out: IC50s, inhibition of SVMP activity). The “lowest concentration effective / required to fully inhibit SVMP activities” value in data set [6] (concentrations tested 150 μM to 150 nM) turned out to be 1.5 µM.
